Test results from patent US12172995B2, “Substituted indole and indazole compounds” (BRISTOL-MYERS SQUIBB COMPANY, priority 2018, dated 2024).
pIC50: −log10 of the molar value.

Tests used:
Type in all cases: cell-based
[1] = target: T1, human TLR7 (Homo sapiens, UniProt Q9NYK1); assay: TLR7 inhibition reporter assay (HEK-Blue SEAP); settings: HEK-Blue cells overexpressing human TLR7, stimulated with gardiquimod 7.5 μM, 22 hour incubation
T1 construct: host or cells: HEK-Blue cells
T1 sequence (Q9NYK1 27-1049): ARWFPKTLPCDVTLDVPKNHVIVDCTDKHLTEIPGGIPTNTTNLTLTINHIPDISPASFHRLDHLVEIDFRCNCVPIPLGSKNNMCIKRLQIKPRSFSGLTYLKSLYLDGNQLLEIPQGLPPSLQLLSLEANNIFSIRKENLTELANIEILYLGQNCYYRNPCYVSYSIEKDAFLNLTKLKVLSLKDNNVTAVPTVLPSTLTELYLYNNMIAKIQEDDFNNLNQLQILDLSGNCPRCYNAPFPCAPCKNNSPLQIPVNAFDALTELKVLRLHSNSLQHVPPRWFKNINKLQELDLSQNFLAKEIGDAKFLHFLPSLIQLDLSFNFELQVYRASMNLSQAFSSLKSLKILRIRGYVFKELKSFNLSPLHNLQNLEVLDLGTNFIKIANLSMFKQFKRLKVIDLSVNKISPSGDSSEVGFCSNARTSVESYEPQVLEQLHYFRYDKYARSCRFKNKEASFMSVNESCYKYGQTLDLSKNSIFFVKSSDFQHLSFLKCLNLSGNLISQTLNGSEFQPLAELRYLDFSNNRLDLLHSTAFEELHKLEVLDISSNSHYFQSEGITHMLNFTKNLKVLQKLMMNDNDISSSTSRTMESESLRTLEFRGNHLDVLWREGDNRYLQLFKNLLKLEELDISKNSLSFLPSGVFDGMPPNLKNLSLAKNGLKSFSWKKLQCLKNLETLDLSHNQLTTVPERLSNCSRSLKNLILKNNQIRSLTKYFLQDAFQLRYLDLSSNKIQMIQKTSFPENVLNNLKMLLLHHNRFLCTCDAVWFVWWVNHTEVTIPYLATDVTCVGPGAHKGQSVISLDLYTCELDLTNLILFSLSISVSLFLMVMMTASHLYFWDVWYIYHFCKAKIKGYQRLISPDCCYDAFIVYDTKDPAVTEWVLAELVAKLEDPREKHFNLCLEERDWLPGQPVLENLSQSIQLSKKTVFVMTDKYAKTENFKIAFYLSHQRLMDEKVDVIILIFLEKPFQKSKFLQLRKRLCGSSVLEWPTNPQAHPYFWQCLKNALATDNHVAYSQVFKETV
Summary of the method: (§1)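 Percent inhibition reflects SEAP reduction after 22 h at 37° C, relative to agonist-plus-DMSO and known-inhibitor controls. Compounds (0.05 nM to 50 μM) were added 30 min before agonist: TLR9 cells received ODN2006 5 nM, TLR8 cells R848 15.9 μM, TLR7 cells gardiquimod 7.5 μM; human receptor-expressing HEK-Blue reporter lines.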

[2] = target: T2, human TLR8 (Homo sapiens, UniProt Q9NR97); assay: TLR8 inhibition reporter assay (HEK-Blue SEAP); settings: HEK-Blue cells overexpressing human TLR8, stimulated with R848 15.9 μM, 22 hour incubation
T2 construct: host or cells: HEK-Blue cells
T2 sequence (Q9NR97 27-1041): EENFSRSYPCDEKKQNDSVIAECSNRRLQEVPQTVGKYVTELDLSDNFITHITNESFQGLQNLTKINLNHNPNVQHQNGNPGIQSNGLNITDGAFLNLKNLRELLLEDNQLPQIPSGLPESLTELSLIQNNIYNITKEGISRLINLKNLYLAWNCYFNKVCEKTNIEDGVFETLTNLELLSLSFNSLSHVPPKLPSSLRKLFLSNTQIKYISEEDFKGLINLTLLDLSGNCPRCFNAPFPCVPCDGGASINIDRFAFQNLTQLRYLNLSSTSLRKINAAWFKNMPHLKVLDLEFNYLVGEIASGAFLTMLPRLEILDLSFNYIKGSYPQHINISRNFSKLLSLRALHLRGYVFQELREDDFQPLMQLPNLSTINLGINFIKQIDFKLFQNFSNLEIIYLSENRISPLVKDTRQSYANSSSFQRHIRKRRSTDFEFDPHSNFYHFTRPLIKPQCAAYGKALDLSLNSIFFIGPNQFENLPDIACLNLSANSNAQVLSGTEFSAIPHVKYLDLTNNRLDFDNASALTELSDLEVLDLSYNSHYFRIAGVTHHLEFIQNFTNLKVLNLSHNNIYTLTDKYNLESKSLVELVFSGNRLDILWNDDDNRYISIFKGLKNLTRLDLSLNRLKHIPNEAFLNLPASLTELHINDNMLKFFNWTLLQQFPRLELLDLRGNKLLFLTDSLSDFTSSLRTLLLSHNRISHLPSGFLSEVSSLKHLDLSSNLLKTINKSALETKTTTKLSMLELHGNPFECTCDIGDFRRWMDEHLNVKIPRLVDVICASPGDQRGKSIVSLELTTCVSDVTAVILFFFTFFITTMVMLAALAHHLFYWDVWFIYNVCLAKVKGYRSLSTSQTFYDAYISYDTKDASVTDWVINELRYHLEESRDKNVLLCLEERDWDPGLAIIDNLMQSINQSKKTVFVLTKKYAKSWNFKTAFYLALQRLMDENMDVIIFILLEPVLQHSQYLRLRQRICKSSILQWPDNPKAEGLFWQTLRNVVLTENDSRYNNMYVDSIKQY
Summary of the method: as §1

[3] = target: T3, human TLR9 (Homo sapiens, UniProt Q9NR96); assay: TLR9 inhibition reporter assay (HEK-Blue SEAP); settings: HEK-Blue cells overexpressing human TLR9, stimulated with ODN2006 5 nM, 22 hour incubation
T3 construct: host or cells: HEK-Blue cells
T3 sequence (Q9NR96 26-1032): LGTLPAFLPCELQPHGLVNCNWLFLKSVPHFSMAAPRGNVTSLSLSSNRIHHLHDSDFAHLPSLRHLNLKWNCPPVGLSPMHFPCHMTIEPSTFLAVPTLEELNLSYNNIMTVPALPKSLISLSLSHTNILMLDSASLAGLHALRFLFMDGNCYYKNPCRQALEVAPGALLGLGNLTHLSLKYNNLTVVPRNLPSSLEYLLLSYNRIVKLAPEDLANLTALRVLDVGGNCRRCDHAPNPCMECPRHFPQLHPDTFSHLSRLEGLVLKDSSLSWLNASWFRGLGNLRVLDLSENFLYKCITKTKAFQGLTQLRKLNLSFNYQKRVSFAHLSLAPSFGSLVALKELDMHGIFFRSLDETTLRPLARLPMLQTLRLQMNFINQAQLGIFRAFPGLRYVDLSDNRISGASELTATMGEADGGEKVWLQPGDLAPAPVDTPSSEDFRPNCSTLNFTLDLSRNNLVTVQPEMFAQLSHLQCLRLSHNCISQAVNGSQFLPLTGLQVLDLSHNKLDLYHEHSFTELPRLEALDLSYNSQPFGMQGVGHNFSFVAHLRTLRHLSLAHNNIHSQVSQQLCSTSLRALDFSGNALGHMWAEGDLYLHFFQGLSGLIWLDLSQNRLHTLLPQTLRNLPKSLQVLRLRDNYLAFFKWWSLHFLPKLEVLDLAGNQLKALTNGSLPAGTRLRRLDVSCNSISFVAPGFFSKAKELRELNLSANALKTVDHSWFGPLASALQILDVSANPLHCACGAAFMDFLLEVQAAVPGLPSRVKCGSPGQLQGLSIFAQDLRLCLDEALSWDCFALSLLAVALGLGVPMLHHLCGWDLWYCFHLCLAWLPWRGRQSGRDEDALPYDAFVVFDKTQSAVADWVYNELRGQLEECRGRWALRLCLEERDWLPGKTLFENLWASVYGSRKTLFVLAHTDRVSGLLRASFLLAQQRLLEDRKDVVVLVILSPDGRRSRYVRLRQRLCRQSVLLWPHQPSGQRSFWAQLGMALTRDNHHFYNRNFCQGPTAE
Summary of the method: as §1

SMILES	pIC50 [1]	pIC50 [2]	pIC50 [3]
Cc1cc(-c2cc3[nH]nc(C4CCN(CC(=O)N(C)C)CC4)c3cc2C(C)C)cn2ncnc12 [Example 112, 2-(4-(5-isopropyl-6-(8-methyl-[1,2,4]triazolo[1,5-a]pyridin-6-yl)-1H-indazol-3-yl)piperidin-1-yl)-N,N-dimethylacetamide]	8.82	9.52	4.68
Cc1cc(-c2cc3[nH]nc(C4CCN(CC(C)(C)O)CC4)c3cc2C(C)C)cn2ncnc12 [Example 113, 1-(4-(5-isopropyl-6-(8-methyl-[1,2,4]triazolo[1,5-a]pyridin-6-yl)-1H-indazol-3-yl)piperidin-1-yl)-2-methylpropan-2-ol]	8.82	10.00	4.69
Cc1cc(-c2cc3[nH]nc(C4CCC(N(C)C)CC4)c3cc2C(C)C)cn2ncnc12 (stereo not drawn) [Example 115, 4-(5-isopropyl-6-(8-methyl-[1,2,4]triazolo[1,5-a]pyridin-6-yl)-1H-indazol-3-yl)-N,N-dimethylcyclohexan-1-amine]	9.22	10.00	5.17
Cc1cc(-c2cc3[nH]nc(C4CCN(C5CCOCC5)CC4)c3cc2C(C)C)cn2ncnc12 [Example 116, 6-(5-isopropyl-3-(1-(tetrahydro-2H-pyran-4-yl)piperidin-4-yl)-1H-indazol-6-yl)-8-methyl-[1,2,4]triazolo[1,5-a]pyridine]	9.22	10.00	5.18
COc1cc(-c2cc3[nH]nc(C4CCN(C(=O)CN(C)C)CC4)c3cc2C(C)C)cn2ncnc12 [Example 117, 2-(dimethylamino)-1-(4-(5-isopropyl-6-(8-methoxy-[1,2,4]triazolo[1,5-a]pyridin-6-yl)-1H-indazol-3-yl)piperidin-1-yl)ethan-1-one]	8.47	9.30	4.95
Cc1cc(-c2cc3[nH]nc(C4CCN(C5COC5)CC4)c3cc2C(C)C)cn2ncnc12 [Example 120, 6-(5-isopropyl-3-(1-(oxetan-3-yl)piperidin-4-yl)-1H-indazol-6-yl)-8-methyl-[1,2,4]triazolo[1,5-a]pyridine]	8.13	8.96	≤ 4.30
Cc1cc(-c2cc3[nH]nc(C4CCN(C(=O)CCN(C)C)CC4)c3cc2C(C)C)cn2ncnc12 [Example 122, 3-(dimethylamino)-1-(4-(5-isopropyl-6-(8-methyl-[1,2,4]triazolo[1,5-a]pyridin-6-yl)-1H-indazol-3-yl)piperidin-1-yl)propan-1-one]	8.49	9.10	4.86
Cc1cc(-c2cc3[nH]nc(C4CCN(C(C)C)CC4)c3cc2C(C)C)cn2ncnc12 [Example 123, 6-(5-isopropyl-3-(1-isopropylpiperidin-4-yl)-1H-indazol-6-yl)-8-methyl-[1,2,4] triazolo[1,5-a]pyridine]	9.30	10.00	5.25
Cc1cc(-c2cc3[nH]nc(C4CCC(NCCS(C)(=O)=O)CC4)c3cc2C(C)C)cn2ncnc12 (stereo not drawn) [Example 126, 4-(5-isopropyl-6-(8-methyl-[1,2,4]triazolo[1,5-a]pyridin-6-yl)-1H-indazol-3-yl)-N-(2-(methylsulfonyl)ethyl) cyclohexan-1-amine]	8.96	10.00	4.97
Cc1cc(-c2cc3[nH]nc(C4CCC(NCCS(C)(=O)=O)CC4)c3cc2C(C)C)cn2ncnc12 (stereo not drawn) [Example 127, 4-(5-isopropyl-6-(8-methyl-[1,2,4]triazolo[1,5-a]pyridin-6-yl)-1H-indazol-3-yl)-N-(2-(methylsulfonyl)ethyl) cyclohexan-1-amine]	8.72	10.00	5.07
Cc1cc(-c2cc3[nH]nc(C4CCC(N5CCOCC5)CC4)c3cc2C(C)C)cn2ncnc12 (stereo not drawn) [Example 132, 4-(4-(5-isopropyl-6-(8-methyl-[1,2,4]triazolo[1,5-a]pyridin-6-yl)-1H-indazol-3-yl)cyclohexyl)morpholine]	9.05	10.00	5.27
Cc1cc(-c2cc3[nH]nc(C4CCC(N5CCOCC5)CC4)c3cc2C(C)C)cn2ncnc12 (stereo not drawn) [Example 133, 4-(4-(5-isopropyl-6-(8-methyl-[1,2,4]triazolo[1,5-a]pyridin-6-yl)-1H-indazol-3-yl)cyclohexyl)morpholine]	8.85	9.70	5.04
COC1CN(C2CCC(c3n[nH]c4cc(-c5cc(C)c6ncnn6c5)c(C(C)C)cc34)CC2)C1 (stereo not drawn) [Example 144, 6-(5-isopropyl-3-(4-(3-methoxyazetidin-1-yl)cyclohexyl)-1H-indazol-6-yl)-8-methyl-[1,2,4]triazolo[1,5-a]pyridine]	9.10	9.30	4.88
